From patent publication US20070191402A1, “Method of searching substrate having antidiabetic activity” (KYOWA HAKKO KOGYO CO., LTD., priority 2002, published 2007)

What was measured:
[1] = system: pancreatic β cell (MIN6 cell); assay: Inhibition of binding of [3H]-labeled Compound 16 to pancreatic β cell; design: species or system murine; settings: test compound 1 μmol/l; 10 nmol/l [3H]-labeled Compound 16; MIN6 cell, 4° C.
Description: MIN6 cell cultured to almost confluence in a 24-well plate for cell culture (manufactured by Corning) was washed twice with KRH buffer (119 mmol/l NaCl, 4.74 mmol/KCl, 2.54 mmol/l calcium chloride (CaCl2), 1.19 mmol/l magnesium sulfate (MgSO4), 1.19 mmol/l potassium dihydrogen phosphate (KH2PO4), 10 mmol/l HEPES, 2 mmol/l glucose, 0.1 w/v % bovine serum albumin (BSA), pH 7.3). Subsequently, the KRH buffer was added at 1 ml per well, for preincubation at 37° C. for 45 minutes. After preincubation, the supernatant was discarded, and 0.15 ml of the KRH buffer, […] at 4° C. for one hour or longer until the reaction reached equilibrium. Subsequently, the cell was washed twice using the KRH buffer. The KRH buffer was added at 2 ml per well, which was then left to stand at room temperature for 20 minutes. The cell was again washed twice by using the KRH buffer. The radioactivity remaining in each well was counted with a liquid scintillation counter to determine the binding amount.
The difference between the binding amount of the [^3H]-labeled Compound 16 (total binding amount) under conditions with no addition of any test compound and the binding amount of the [^3H]-labeled Compound 16 (non-specific binding amount) under conditions in the presence of the Compound 16 at 10 μmol/l was defined as specific binding amount.
According to the method described in Example 5, a substance having anti-diabetic activity was screened for, using the inhibitory activity of the binding between pancreatic β cells and [^3H]-labeled Compound 16. A tested substance was dissolved in dimethylsulfoxide and then added to give a final concentration of 1 μmol/l. The radioactivity with addition of the unlabeled Compound 16 was defined as the non-specific binding amount and the radioactivity without addition of the unlabeled Compound 16 was defined as the total binding amount, and then the individual specific binding amounts were calculated by the method described in Example 6. Using the following formula, the binding inhibition ratio was determined. [formula]

[2] = target: T1, p31 protein (Mus musculus, UniProt Q99LB2); assay: Inhibition of binding of p31 protein from MIN6 solubilized membrane fraction to Compound 155-immobilized particle (SDS-PAGE); settings: 500 μmol/l tested substance, band on SDS-PAGE
T1 construct: endogenous in cells; host or cells: MIN6 (murine pancreatic beta cell line), digitonin-solubilized membrane fraction
T1 sequence (Q99LB2 20-279 limits assumed): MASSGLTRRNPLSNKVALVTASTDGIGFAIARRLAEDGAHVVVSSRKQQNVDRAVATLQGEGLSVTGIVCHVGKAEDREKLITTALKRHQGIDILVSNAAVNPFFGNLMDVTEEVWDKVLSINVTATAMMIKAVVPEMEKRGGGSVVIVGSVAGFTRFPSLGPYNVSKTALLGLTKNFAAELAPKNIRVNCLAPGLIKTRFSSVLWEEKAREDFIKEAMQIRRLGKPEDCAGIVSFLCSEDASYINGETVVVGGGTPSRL
Description: The solubilized membrane fraction of MIN6 as prepared in Example 12 was 10-fold diluted with the buffer B. The compound represented by Compound No. 16 (hereinafter referred to as “Compound 16”) at 500 μmol/l was added to 1 ml of the resulting dilution and gently stirred at 4° C. for 2 hours. As a control, the solubilized membrane fraction of MIN6 without addition of the Compound 16 was 10-fold diluted with buffer C [20 mmol/l HEPES, pH 7.4, 2 mmol/l EDTA, 150 mmol/l NaCl, 1% digitonin, 1 mmol/l PMSF, 1 μg/ml aprotinin], and 1 ml of the resulting dilution was gently stirred at 4° C. for 2 hours. Then, a particle immobilizing a compound represented by Compound No. 155 (hereinafter referred to as “Compound 155-immobilized particle”) as prepared in Example 8 was added to the solubilized membrane fraction solution with addition of the Compound 16 and the solubilized membrane fraction solution without addition of any tested substance and gently stirred at 4° C. for 30 minutes. Subsequently, the resulting solutions were centrifuged (12,000 rpm, one minute, 4° C.) to precipitate the particle to thereby remove the supernatants. Then, 750 μl of the buffer C was added and stirred for 3 seconds, followed by centrifugation (12,000 rpm, one minute, 4° C.), to precipitate the particle to remove the supernatant. Then, 750 μl of buffer D [20 mmol/l HEPES, pH 7.4, 2 mmol/l EDTA] was added and stirred for 3 seconds, followed by centrifugation (12,000 rpm, one minute, 4° C.), to precipitate the particle to remove the supernatant. Subsequently, 30 μl of an SDS-polyacrylamide gel electrophoresis sample buffer containing β-mercaptoethanol was added to solubilize the protein binding to Compound 155-immobilized particle, followed by SDS-polyacrylamide gel electrophoresis. Through the purification from the cell extract solution by adding Compound 16 via Compound 155-immobilized particle, p31 protein in which its specific binding to Compound 155-immobilized particle was inhibited by the compound represented by Compound No. 16 was found. […]

Which results are given for `CCCN1C(=O)N2C[C@@H](Cc3ccccc3)N=C2c2[nH]c(C3CCCC3)nc21` [compound 16]?
Binding inhibitory activity (%) [1]: 100.0%; inhibition of the binding of the p31 protein to the Compound 155-immobilized particle [2]: inhibits the binding of the p31 protein; inhibition of the binding of the p31 protein to the Compound 155-immobilized particle ([2]; listed as Compound No. 16): inhibited
